What was measured:
[1] = Assay C: permeability in CACO-2 cells; format: in vitro ADME; conditions: human, pH 7.2, Table 7, compounds of the invention, CACO-2 cells; for efflux ratio: permeability B-A/permeability A-B, read-out: Efflux Ratio
Method: Caco-2 cells (1-2×10^5 cells/1 cm^2 area) are seeded on filter inserts (Costar transwell polycarbonate or PET filters, 0.4 μm pore size) and cultured (DMEM) for 10 to 25 days. Compounds are dissolved in appropriate solvent (like DMSO, 1-20 mM stock solutions). […] The transport solution (TL) is applied to the apical or basolateral donor side for measuring A-B or B-A permeability (3 filter replicates), respectively. Samples are collected at the start and end of experiment from the donor and at various time intervals for up to 2 hours also from the receiver side for concentration measurement by HPLC-MS/MS or scintillation counting. Sampled receiver volumes are replaced with fresh receiver solution.
Efflux ratio (ER)=permeability B−A/permeability A−B

QPCTL = molecular target: T1, QPCTL (Homo sapiens, UniProt Q9NXS2); assay: Assay A: biochemical QPCTL activity assay (MALDI-TOF MS, CD47 peptide substrate); conditions: Table 2, compounds of the invention, read-out: Inhibition of QPCTL: IC50
T1 construct: made in house
T1 sequence (Q9NXS2 whole entry, species assumed): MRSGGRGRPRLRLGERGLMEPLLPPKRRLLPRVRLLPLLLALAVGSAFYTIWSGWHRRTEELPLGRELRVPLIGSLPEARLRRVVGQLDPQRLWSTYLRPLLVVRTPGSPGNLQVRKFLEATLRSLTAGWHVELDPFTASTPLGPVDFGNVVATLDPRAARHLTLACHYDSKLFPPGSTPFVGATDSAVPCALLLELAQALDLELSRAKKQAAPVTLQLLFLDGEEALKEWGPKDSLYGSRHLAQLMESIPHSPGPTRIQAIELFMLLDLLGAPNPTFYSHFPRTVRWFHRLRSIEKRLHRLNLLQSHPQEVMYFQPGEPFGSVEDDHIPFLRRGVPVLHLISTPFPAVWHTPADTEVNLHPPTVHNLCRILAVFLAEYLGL
Method: (§1) QPCT or QPCTL dependent conversion of N-terminal glutamine to pyroglutamate of CD47 was monitored via MALDI-TOF MS. Test compounds were dissolved in 100% DMSO and serially diluted into clear 1,536-well microtiter plates. Enzymatic reactions were set up in assay buffer containing 20 mM Tris pH 7.5, 0.1 mM TCEP, 0.01% BSA, and 0.001% Tween20. […] The plates were incubated for 10 min in a humidified incubator at 24° C. Subsequently, 2.5 μL of CD47 peptide substrate surrogate (^19[…]^33) was added to each well (final concentration: 10 μM for QPCTL/20 μM for QPCT). The plates were mixed for 30 sec at 1,000 rpm and subsequently incubated for 40 min in a humidified incubator at 24° C. […] The plates were sealed with an adhesive foil, mixed for 30 s at 1,000 rpm and stored at room temperature until preparation of the MALDI target plates. MALDI target plates were prepared as described previously. […] QPCT or QPCTL activity was monitored by calculating the ratio between product and internal standard signals followed by normalization to high (100% activity) and low (0% activity) controls. Determination of compound potencies was obtained by fitting the dose-response data to a four-parameter logistical equation.

[2] = system: SIRPα signalling induced by Raji cells; assay: Assay B: SIRPα signalling assay using Raji cells; format: cell-based; conditions: Homo sapiens, Table 4, compounds of the invention, read-out: Inhibition of SIRPα signalling induced by Raji cells: IC50
Method: Bioassay reagent 1 of the PathHunter Bioassay detection kit (DiscoverX 93-0001) was added to each well of the plate using a multichannel pipette followed by a 15 min incubation at room temperature. Afterwards bioassay reagent 2 was added followed by 60 min incubation at room temperature (incubation in the dark).
(§2) The analysis of the data was performed using the luminescence signal generated by beta-galactosidase in the PathHunter reporter cell line. The luminescence measurement was done using a Pherastar Multi-Mode Reader.

murine hepatocytes = assay: Assay E: stability in murine hepatocytes; format: in vitro ADME, mouse; conditions: Table 12, compounds of the invention, 1 μM, 5% species serum
Method: The metabolic degradation of the test compound is assayed in a murine hepatocyte suspension.
Murine hepatocytes (typically cryopreserved) are incubated in an appropriate buffer system (e.g. Dulbecco's modified eagle medium plus 3.5 μg glucagon/500 mL, 2.5 mg insulin/500 mL and 3.75 mg/500 mL hydrocortison) containing 5% species serum.
Following a (typically) 30 min preincubation in an incubator (37° C., 10% CO2) 5 μl of test compound solution (80 μM; from 2 mM in DMSO stock solution diluted 1:25 with medium) are added into 395 μl hepatocyte suspension (cell density in the range 0.25-5 Mio cells/mL, typically 1 Mio cells/mL; final concentration of test compound 1 μM, final DMSO concentration 0.05%).
The cells are incubated for six hours (incubator, orbital shaker) and samples (25 μl) are taken at 0, 0.5, 1, 2, 4 and 6 hours. Samples are transferred into acetonitrile and pelleted by centrifugation (5 min). The supernatant is transferred to a new 96-deepwell plate, evaporated under nitrogen and resuspended.
Decline of parent compound is analyzed by HPLC-MS/MS
CLint is calculated as follows CL_[…]=Dose/AUC=(C0/CD)/(AUD+clast/k)×1000/60. C0: initial concentration in the incubation [μM], CD: cell density of vital cells [10e6 cells/mL], AUD: area under the data [μM×h], clast: concentration of last data point [μM], k: slope of the regression line for parent decline [h−1].
The calculated in vitro hepatic intrinsic clearance can be scaled up to the intrinsic in vivo hepatic Clearance and used to predict hepatic in vivo blood clearance (CL) by the use of a liver model (well stirred model).
[formula] [formula] [formula] • Hepatocellularity, mouse: 120×10e6 cells/g liver • Liver factor, mouse: 55 g/kg bodyweight • Blood flow, mouse: 90 ml/(min×kg)

CYP3A4 mRNA = assay: Assay D: CYP induction screening assay in primary human hepatocytes; format: in vitro ADME; conditions: Table 9, compounds of the invention, 48 h
Method: Cryopreserved plateable human hepatocytes (single donor. BioIVT) were thawed and plated in Collagen-I coated 96-well-plates at a cell density of 0.07 million cells per well.
After a 6 h attachment period, the seeding medium was replaced by serum-free William's medium E supplemented with Matrigel (0.25 mg/ml) and allowed to recover overnight. 24 h post-seeding, serum-free Williams E medium containing the test compound at a final concentration of […] and a final DMSO content of 0.1% and 0.1% DMSO (solvent-treated control), respectively, was added to predefined wells. Exposure solutions were renewed after 24 h.
After 48 h of treatment in total, the effect of the test compounds on CYP3A4 mRNA expression was assessed using the QuantiGene Plex Gene Expression Assay. Hepatocytes were lysed and total RNA was extracted using the QuantiGene Sample Processing Kit according to the instructions of the manufacturer.
mRNA quantification was conducted using a customized QuantiGene Plex Panel to analyse CYP3A4 and the housekeeper genes RPL32, EIF4E2 and GUSB according to the instructions of the manufacturer and measured on a Luminex™ instrument. Signal was reported as median fluorescence intensity (MFI), which is proportional to the number of target RNA molecules present in the sample.
For calculation of CYP3A4 mRNA induction, the signal for CYP3A4 was normalized against the geometric mean of the signal obtained for the housekeeper genes for hepatocytes exposed to test compounds in relation to solvent-treated samples according to the following equation: […]

QPCT = molecular target: T2, QPCT (Homo sapiens, UniProt Q16769); assay: Assay A: biochemical QPCT activity assay (MALDI-TOF MS, CD47 peptide substrate); conditions: Table 2, compounds of the invention, read-out: Inhibition of QPCT: IC50
T2 construct: purchased Origine (OriGene) TP700028
T2 sequence (Q16769 29-361): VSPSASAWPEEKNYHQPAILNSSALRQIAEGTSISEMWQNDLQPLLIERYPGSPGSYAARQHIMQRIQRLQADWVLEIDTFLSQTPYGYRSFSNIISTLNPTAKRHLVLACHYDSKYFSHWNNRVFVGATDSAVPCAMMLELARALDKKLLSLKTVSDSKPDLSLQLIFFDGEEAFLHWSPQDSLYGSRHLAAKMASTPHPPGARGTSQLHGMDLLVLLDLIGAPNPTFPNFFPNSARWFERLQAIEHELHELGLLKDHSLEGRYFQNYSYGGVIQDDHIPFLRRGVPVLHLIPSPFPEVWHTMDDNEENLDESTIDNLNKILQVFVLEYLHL
Method: as §1

[3] = system: SIRPα signalling induced by A549 cells; assay: Assay B: SIRPα signalling assay using A549 cells; format: cell-based; conditions: Homo sapiens, Table 4, compounds of the invention, read-out: Inhibition of SIRPα signalling induced by A549 cells: IC50
Method: Two cell types are independently used: the Raji cell line (lymphoblast-like human cell line derived from B lymphocytes from a Burkitt's lymphoma patient in 1963) and A549 cells (adenocarcinoma human alveolar basal epithelial cells).
Test compounds were dissolved in 100% DMSO and serially diluted into a white 384-well microtiter cell culture plate (PerkinElmer #60076780 in case of Raji assay; PDL-coated plates Greiner #781945 in case of A549 assay). 5000 Raji cells (ATCC #CC86) or 5000 A549 cells (ATCC #CCL-185) in Assay Complete Cell Plating reagent 30 (DiscoverX 93-0563R30B) were added per well. The assay plate was incubated for 48 h at 37° C., 95% humidity and 5% CO2. 15000 reporter cells (Jurkat PathHunter SIRPαV1, DiscoverX #93-1135C19) were added to each well, and the plate was incubated for 5 h at 37° C., 95% humidity and 5% CO2. Bioassay reagent 1 of the PathHunter Bioassay detection kit (DiscoverX 93-0001) was added to each well of the plate using a multichannel pipette followed by a 15 min incubation at room temperature. Afterwards bioassay reagent 2 was added followed by 60 min incubation at room temperature (incubation in the dark).
as §2, with “Reader. Dose-response curves & IC50 data were calculated with 4-parameter sigmoidal dose response formula.” for “Reader.”

Row | Papp A→B [1] | efflux ratio [1] | IC50 (QPCTL) | IC50 [2] | Mouse Hepatocyte Stability QH (murine hepatocytes) | n-fold induction of CYP3A4 at 10 μM (CYP3A4 mRNA) | IC50 (QPCT) | IC50 [3] | Structure (SMILES)
1 | 2.3 ×10⁻⁶ cm/s | 17 | 4 nM | 262 nM | 44% | 1.3 n-fold | 5 nM | 82 nM | Cn1cnnc1C1(F)CCN(c2c(C#N)cc(-c3ccc(F)cc3)nc2-c2ccnnc2)CC1 [Example 18]
2 | 8.1 ×10⁻⁶ cm/s | 7.2 | 2 nM | 139 nM | <12% | 1.1 n-fold | 2 nM | 25 nM | Cc1ncc(-c2cc(C#N)c(N3CCC(F)(c4nncn4C)CC3)c(-c3cnc4nn(C(F)(F)F)cc4c3)n2)o1 [Example 19]
3 | 4.3 ×10⁻⁶ cm/s | 12.8 | 2 nM | 618 nM | <12% | 0.5 n-fold | 1 nM | 110 nM | Cn1cnnc1C1(F)CCN(c2c(C#N)cc(-c3cnc(C(F)(F)F)nc3)nc2-c2cnc3nn(C(F)(F)F)cc3c2)CC1 [Example 20]
4 | 6.8 ×10⁻⁶ cm/s | 11.9 | 1 nM | 78 nM | 35% | 0.7 n-fold | 2 nM | 24 nM | Cn1cnnc1C1(F)CCN(c2c(C#N)cc(-c3cccnc3)nc2-c2cnc3nn(C(F)(F)F)cc3c2)CC1 [Example 21]
5 | 12 ×10⁻⁶ cm/s | 6.8 | 1 nM | 130 nM | 17% | 0.5 n-fold | 3 nM | 17 nM | Cc1ccc(-c2cc(C#N)c(N3CCC(F)(c4nncn4C)CC3)c(-c3cnc4nn(C(F)(F)F)cc4c3)n2)cn1 [Example 22]
6 | 4.1 ×10⁻⁶ cm/s | 16.3 | 1 nM | 169 nM | <12% | 1.1 n-fold | 2 nM | 43 nM | Cc1nn(C)c(C)c1-c1cc(C#N)c(N2CCC(F)(c3nncn3C)CC2)c(-c2cnc3nn(C(F)(F)F)cc3c2)n1 [Example 23]

Further lines, the molecule ahead of its results:

Row | Structure (SMILES) | Papp A→B [1] | efflux ratio [1] | IC50 (QPCTL) | IC50 [2] | Mouse Hepatocyte Stability QH (murine hepatocytes) | n-fold induction of CYP3A4 at 10 μM (CYP3A4 mRNA) | IC50 (QPCT) | IC50 [3]
7 | Cn1cnnc1C1(F)CCN(c2c(C#N)cc(C(C)(F)F)nc2-c2cnc3nn(C)c(C(F)(F)F)c3c2)CC1 [Example 9] | 14 ×10⁻⁶ cm/s | 6.4 | 6 nM | 83 nM | 34% | 4.2 n-fold | 5 nM | 14 nM
8 | Cn1cnnc1C1(F)CCN(c2c(C#N)cc(C(F)(F)F)nc2-c2cnc3nn(C)c(C(F)(F)F)c3c2)CC1 [Example 10] | 11 ×10⁻⁶ cm/s | 6.6 | 8 nM | 160 nM | 53% | 5.2 n-fold | 13 nM | 49 nM
9 | Cn1cnnc1C1(F)CCN(c2c(C#N)cc(C3CC3)nc2-c2cnc3nn(C)c(C(F)(F)F)c3c2)CC1 [Example 11] | 32 ×10⁻⁶ cm/s | 2.5 | 3 nM | 167 nM | 32% | 5.0 n-fold | 3 nM | 37 nM
10 | Cc1cc(-c2nc(C3CC3)cc(C#N)c2N2CCC(F)(c3nncn3C)CC2)cnn1 [Example 12] | 5.6 ×10⁻⁶ cm/s | 9.5 | 16 nM | 950 nM | 21% | 4.1 n-fold | 14 nM | 145 nM
11 | Cn1cnnc1C1(F)CCN(c2c(C#N)cc(C(F)(F)F)nc2-c2cnc3nn(C(C)(C)C)cc3c2C(F)F)CC1 [Example 15] | 7.6 ×10⁻⁶ cm/s | 10.9 | 12 nM | 3 nM | <12% | 14.2 n-fold | 9 nM | 1 nM
12 | Cc1nn(C)cc1-c1cc(C#N)c(N2CCC(F)(c3nncn3C)CC2)c(-c2cnc3nn(C(F)(F)F)cc3c2)n1 [Example 17] | 5.1 ×10⁻⁶ cm/s | 9.4 | 2 nM | 69 nM | 18% | 3.0 n-fold | 2 nM | 22 nM

From US20250250251A1, “PIPERIDINYLPYRIDINYLCARBONITRILE DERIVATIVES AS INHIBITORS OF GLUTAMINYL-PEPTIDE CYCLOTRANSFERASE AND GLUTAMINYL-PEPTIDE CYCLOTRANSFERASE LIKE PROTEIN” (Boehringer Ingelheim International GmbH, priority 2024, published 2025)
